These results are taken from patent US5869482A, “Dipyridio[2,3-b:3',2'-] azepines and their use in the prevention or treatment of HIV infection” (priority 1997, dated 1999).

SMILES strings stand for the structures.

For experiment [1], the target named is HIV-1 reverse transcriptase, wild type (WT) (Human immunodeficiency virus type 1 (BRU ISOLATE), UniProt P03367). As to the kind of experiment: Reverse Transcriptase (RT) assay, wild type enzyme. It counts as biochemical, Human Immunodeficiency Virus (HIV-1), LAV strain. The following applies: 1 μM compound; RNA-dependent DNA polymerase activity; read-out: RT (WT) % inh. (1 μM). From the text:
Utilizing the Reverse Transcriptase (RT) Assay described below, compounds can be tested for their ability to inhibit the RNA-dependent DNA polymerase activity of HIV-1 RT.
Among the enzymes for which Human Immunodeficiency Virus (HIV-1) encodes is a reverse transcriptase (1), so-named because it transcribes a DNA copy from an RNA template. This activity can be quantitatively measured in a cell-free enzyme assay, which has been previously described (2), and is based upon the observation that reverse transcriptase is able to use a synthetic template [poly r(C) primed with oligo d(G)] to transcribe a radio-labelled, acid-precipitable DNA strand utilizing ^3 H-dGTP as a substrate. The assay described below utilizes the wild type (WT) enzyme, which is the predominant form of the enzyme observed in patients infected with HIV-1.
Reverse transcriptase enzyme from the LAV strain of Human Immunodeficiency Virus (HIV-1) (1) was isolated from the bacterial strain JM109 (3) expressing the DNA clone pBRTprtl+ (2) which is under the control of the lac promotor in the expression vector pIBI21 (4). […] At that time the repressor inhibitor IPTG (isopropyl β-D-thiogalactopyranoside) is added to 0.5 mM, and the mixture is incubated for 2 additional hours. […] The cells are lysed by the addition of 0.2% NP-40 and brought to 1M NaCl. […]

For a further experiment, the target named is T1, HIV-1 RT (P236L) mutant (Human immunodeficiency virus type 1 (BRU ISOLATE), UniProt P03367, P835L).
T1 construct: P236L mutant
It counts as biochemical, Human Immunodeficiency Virus (HIV-1). The following applies: 1 μM compound; RNA-dependent DNA polymerase activity.

The target of another experiment is T2, HIV-1 RT (L100I) mutant (Human immunodeficiency virus type 1 (BRU ISOLATE), UniProt P03367, L699I).
T2 construct: L100I mutant
It counts as biochemical, Human Immunodeficiency Virus (HIV-1). The following applies: 1 μM compound; RNA-dependent DNA polymerase activity.

The target in the next experiment is T3, HIV-1 RT (Y181C) mutant (Human immunodeficiency virus type 1 (BRU ISOLATE), UniProt P03367, Y780C).
T3 construct: Y181C by site-directed mutagenesis
As to the kind of experiment: biochemical. Further details: species or system Human Immunodeficiency Virus (HIV-1). The following applies: 1 μM compound; RNA-dependent DNA polymerase activity; read-out: RT (Y181C) % inh. (1 μM).

The target of another experiment is T4, HIV-1 RT (K103N) mutant (Human immunodeficiency virus type 1 group M subtype B, UniProt P03367, K702N).
T4 construct: Reverse transcriptase enzyme from the LAV strain; made in house; host or cells: E. coli JM109 with clone pBRTprtl+ in vector pIBI21 (stated for the wild-type enzyme; inferred for the K103N mutant)
The experiment can be described thus: biochemical. More on the design: species or system Human Immunodeficiency Virus (HIV-1). Particulars: 1 μM compound; RNA-dependent DNA polymerase activity; read-out: RT (K103N) % inh. (1 μM).

Turning to `CCN1c2ncccc2C=Cc2cccnc21` [Example 1, 11-Ethyl-dipyrido[2,3-b:3',2'-f]azepine], the inhibition at 1 µM in experiment [1] stood at 98%; at HIV-1 RT (Y181C) mutant, 53%; at HIV-1 RT (K103N) mutant, 73%. Also, the “RT (P236L) % inh. (1 μM)” value at HIV-1 RT (P236L) mutant is 99%. Besides, the “RT (L100I) % inh. (1 μM)” value at HIV-1 RT (L100I) mutant was 81%.

For `C1=Cc2cccnc2N(C2CC2)c2ncccc21` [Example 2, 11-Cyclopropyl-dipyrido[2,3-b:3',2'-f]azepine], the inhibition at 1 µM worked out at 97% in experiment [1], 41% at HIV-1 RT (Y181C) mutant and 55% at HIV-1 RT (K103N) mutant. Further, the “RT (P236L) % inh. (1 μM)” value at HIV-1 RT (P236L) mutant is on record as 98%. Also, the “RT (L100I) % inh. (1 μM)” value at HIV-1 RT (L100I) mutant is recorded as 80%.
